Laboratory results: ChEMBL document CHEMBL5465560, “Selectivity Literature for EUbOPEN Chemogenomic Library” (2024)

Key:
[1] = target: CDK18/Cyclin Y (Homo sapiens) (UniProt Q07002+Q8ND76); assay: Selectivity interaction (NanoBRET assay in HEK293T cells) EUB0000121b CDK18; assay type: cell-based; settings: HEK-293T, at 10 µM
[2] = target: T1, Glycogen synthase kinase-3 alpha (Homo sapiens, UniProt P49840); assay: (§1) Selectivity interaction (Radiometric assay (Reaction Biology)) EUB0000121b GSK3A; settings: at 10 µM
Target sequence in this assay (P49840 2-483 limits assumed): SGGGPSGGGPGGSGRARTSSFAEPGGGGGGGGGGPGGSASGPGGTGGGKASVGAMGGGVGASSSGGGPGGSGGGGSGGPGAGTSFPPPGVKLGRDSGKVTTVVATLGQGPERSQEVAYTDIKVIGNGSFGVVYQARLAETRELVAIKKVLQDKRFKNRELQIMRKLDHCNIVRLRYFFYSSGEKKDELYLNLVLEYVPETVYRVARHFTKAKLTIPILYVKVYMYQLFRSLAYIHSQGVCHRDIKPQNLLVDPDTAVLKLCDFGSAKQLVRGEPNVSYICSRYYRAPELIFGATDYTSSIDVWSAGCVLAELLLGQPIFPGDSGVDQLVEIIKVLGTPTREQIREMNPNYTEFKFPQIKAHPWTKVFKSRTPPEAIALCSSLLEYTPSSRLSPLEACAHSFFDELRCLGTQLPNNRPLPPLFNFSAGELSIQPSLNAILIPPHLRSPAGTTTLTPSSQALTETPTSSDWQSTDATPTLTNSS

[3] = target: CDK11B/Cyclin L2 (Homo sapiens) (UniProt P21127+Q96S94); assay: Selectivity interaction (NanoBRET assay in HEK293T cells) EUB0000121b CDK11B; assay type: cell-based; settings: HEK-293T, at 10 µM
[4] = target: CDK3/Cyclin E (Homo sapiens) (UniProt P24864+Q00526); assay: Selectivity interaction (NanoBRET assay in HEK293T cells) EUB0000121b CDK3; assay type: cell-based; settings: HEK-293T, at 10 µM
[5] = target: Cyclin-dependent kinase 14/Cyclin-Y (Homo sapiens) (UniProt O94921+Q8ND76); assay: Selectivity interaction (NanoBRET assay in HEK293T cells) EUB0000121b CDK14; assay type: cell-based; settings: HEK-293T, at 10 µM
[6] = target: T2, Tyrosine-protein kinase ABL2 (Homo sapiens, UniProt P42684); assay: (§2) Selectivity interaction (Radiometric assay (Reaction Biology)) EUB0000121b ABL2
T2 sequence (P42684 whole entry): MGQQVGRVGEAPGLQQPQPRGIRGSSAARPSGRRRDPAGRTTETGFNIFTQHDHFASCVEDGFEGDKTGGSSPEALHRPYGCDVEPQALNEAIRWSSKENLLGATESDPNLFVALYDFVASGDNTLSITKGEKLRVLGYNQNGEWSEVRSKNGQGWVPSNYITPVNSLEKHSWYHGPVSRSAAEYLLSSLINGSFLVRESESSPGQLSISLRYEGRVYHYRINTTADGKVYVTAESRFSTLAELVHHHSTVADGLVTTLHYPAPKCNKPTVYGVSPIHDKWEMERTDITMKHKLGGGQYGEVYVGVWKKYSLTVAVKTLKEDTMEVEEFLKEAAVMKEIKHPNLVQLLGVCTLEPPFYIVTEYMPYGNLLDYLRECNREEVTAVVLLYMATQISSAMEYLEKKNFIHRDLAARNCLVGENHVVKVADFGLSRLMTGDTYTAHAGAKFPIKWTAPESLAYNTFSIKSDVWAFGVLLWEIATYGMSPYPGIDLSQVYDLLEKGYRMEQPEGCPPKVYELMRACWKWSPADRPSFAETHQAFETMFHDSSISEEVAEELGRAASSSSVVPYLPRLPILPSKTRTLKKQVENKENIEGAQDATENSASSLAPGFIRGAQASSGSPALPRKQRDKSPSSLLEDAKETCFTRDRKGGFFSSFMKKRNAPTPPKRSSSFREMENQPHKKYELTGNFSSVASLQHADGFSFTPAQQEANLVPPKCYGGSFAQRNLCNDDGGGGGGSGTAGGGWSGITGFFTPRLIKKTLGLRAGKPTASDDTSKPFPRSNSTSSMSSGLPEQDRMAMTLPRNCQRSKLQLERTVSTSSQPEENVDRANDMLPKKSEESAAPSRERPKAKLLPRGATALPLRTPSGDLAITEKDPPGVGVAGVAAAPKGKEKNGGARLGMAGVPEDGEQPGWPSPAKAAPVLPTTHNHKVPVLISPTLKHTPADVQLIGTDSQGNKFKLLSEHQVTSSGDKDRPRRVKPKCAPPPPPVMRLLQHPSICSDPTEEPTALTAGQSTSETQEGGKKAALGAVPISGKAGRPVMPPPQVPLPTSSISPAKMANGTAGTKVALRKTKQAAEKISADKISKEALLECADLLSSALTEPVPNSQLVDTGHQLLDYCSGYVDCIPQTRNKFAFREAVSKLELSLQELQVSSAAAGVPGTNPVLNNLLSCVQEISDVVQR

[7] = target: CDK6/cyclin D1 (Homo sapiens) (UniProt P24385+Q00534); assay: Selectivity interaction (NanoBRET assay in HEK293T cells) EUB0000121b CDK6; assay type: cell-based; settings: HEK-293T, at 10 µM
[8] = target: CDK15/Cyclin Y (Homo sapiens) (UniProt Q96Q40+Q8ND76); assay: Selectivity interaction (NanoBRET assay in HEK293T cells) EUB0000121b CDK15; assay type: cell-based; settings: HEK-293T, at 10 µM
CDK6/cyclin D3 = CDK6/cyclin D3 (Homo sapiens, UniProt Q00534); assay: Selectivity interaction ( In-vitro potency (TR-FRET-based LANCE Ultra assay)) EUB0000121b CDK6; assay type: protein-complex assay
[9] = target: CDK9/Cyclin K (Homo sapiens) (UniProt P50750+O75909); assay: Selectivity interaction (NanoBRET assay in HEK293T cells) EUB0000121b CDK9; assay type: cell-based; settings: HEK-293T, at 10 µM
[10] = target: CDK1/Cyclin E (Homo sapiens) (UniProt P06493+P24864); assay: Selectivity interaction (NanoBRET assay in HEK293T cells) EUB0000121b CDK1; assay type: cell-based; settings: HEK-293T, at 10 µM
[11] = target: Cyclin-Y/Cyclin-dependent kinase 16 (Homo sapiens) (UniProt Q00536+Q8ND76); assay: Selectivity interaction (NanoBRET assay in HEK293T cells) EUB0000121b CDK16; assay type: cell-based; settings: HEK-293T, at 10 µM
[12] = target: CDK12/Cyclin K (Homo sapiens) (UniProt O75909+Q9NYV4); assay: Selectivity interaction (NanoBRET assay in HEK293T cells) EUB0000121b CDK12; assay type: cell-based; settings: HEK-293T, at 10 µM
CDK7/Cyclin H/MNAT1 [13] = target: T3, CDK7/Cyclin H/MNAT1 (Homo sapiens, UniProt P50613); assay: Selectivity interaction ( In-vitro potency (TR-FRET-based LANCE Ultra assay)) EUB0000121b CDK7; assay type: protein-complex assay
T3 sequence (P51946 whole entry): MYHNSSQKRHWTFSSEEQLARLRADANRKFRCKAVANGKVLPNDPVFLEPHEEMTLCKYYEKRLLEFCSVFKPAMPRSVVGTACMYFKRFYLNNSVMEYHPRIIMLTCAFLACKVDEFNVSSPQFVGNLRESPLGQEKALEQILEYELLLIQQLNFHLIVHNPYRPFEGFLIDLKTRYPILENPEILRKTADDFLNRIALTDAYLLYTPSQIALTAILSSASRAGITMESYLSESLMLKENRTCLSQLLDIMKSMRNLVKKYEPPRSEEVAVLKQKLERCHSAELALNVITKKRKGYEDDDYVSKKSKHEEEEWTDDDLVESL
T3 sequence (P50613 whole entry): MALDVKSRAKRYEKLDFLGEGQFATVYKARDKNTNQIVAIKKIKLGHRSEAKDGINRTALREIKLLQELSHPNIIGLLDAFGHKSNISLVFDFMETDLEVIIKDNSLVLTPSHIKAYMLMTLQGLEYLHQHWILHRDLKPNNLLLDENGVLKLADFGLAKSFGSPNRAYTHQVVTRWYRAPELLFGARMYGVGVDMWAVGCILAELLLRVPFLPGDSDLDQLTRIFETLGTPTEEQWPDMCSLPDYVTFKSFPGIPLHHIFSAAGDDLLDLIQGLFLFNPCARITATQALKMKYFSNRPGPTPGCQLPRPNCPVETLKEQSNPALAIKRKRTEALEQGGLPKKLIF
T3 sequence (P51948 whole entry, further chain): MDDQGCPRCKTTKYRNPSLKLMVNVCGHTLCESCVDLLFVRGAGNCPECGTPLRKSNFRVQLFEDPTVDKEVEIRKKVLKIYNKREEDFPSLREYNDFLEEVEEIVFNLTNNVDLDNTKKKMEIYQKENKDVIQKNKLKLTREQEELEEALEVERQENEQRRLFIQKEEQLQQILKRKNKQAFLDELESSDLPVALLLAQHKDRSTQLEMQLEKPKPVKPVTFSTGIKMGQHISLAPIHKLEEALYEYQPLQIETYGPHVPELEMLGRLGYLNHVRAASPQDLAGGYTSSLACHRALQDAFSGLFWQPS

[14] = target: Calcium/calmodulin-dependent protein kinase type IV (Homo sapiens, UniProt Q16566); assay: Selectivity interaction (Radiometric assay (Reaction Biology)) EUB0000121b CAMK4
[15] = target: Cyclin-dependent kinase 7 (Homo sapiens, UniProt P50613); assay: Selectivity interaction (NanoBRET assay in HEK293T cells) EUB0000121b CDK7; assay type: cell-based; settings: HEK-293T, at 10 µM
Sequence of Cyclin-dependent kinase 7 (P50613 whole entry): as the sequence (P50613 whole entry) above

[16] = target: CDK8/Cyclin C (Homo sapiens) (UniProt P49336+P24863); assay: Selectivity interaction (NanoBRET assay in HEK293T cells) EUB0000121b CDK8; assay type: cell-based; settings: HEK-293T, at 10 µM
[17] = target: Cyclin-dependent kinase 2/cyclin E1 (Homo sapiens) (UniProt P24864+P24941); assay: Selectivity interaction (NanoBRET assay in HEK293T cells) EUB0000121b CDK2; assay type: cell-based; settings: HEK-293T, at 10 µM
[18] = target: CDK20/Cyclin H (Homo sapiens) (UniProt P51946+Q8IZL9); assay: Selectivity interaction (NanoBRET assay in HEK293T cells) EUB0000121b CDK20; assay type: cell-based; settings: HEK-293T, at 10 µM
[19] = target: T4, Mitogen-activated protein kinase kinase kinase kinase 4 (Homo sapiens, UniProt O95819); assay: (§3) Selectivity interaction (Radiometric assay (Reaction Biology)) EUB0000121b MAP4K4
CDK7/Cyclin H/MNAT1 [20] = target: T3, CDK7/Cyclin H/MNAT1; assay: Selectivity interaction (LanthaScreen Eu Kinase Binding Assay (Invitrogen)) EUB0000121b CDK7; assay type: protein-complex assay
[21] = target: Cyclin-dependent kinase 13/Cyclin-K (Homo sapiens) (UniProt Q14004+O75909); assay: Selectivity interaction (NanoBRET assay in HEK293T cells) EUB0000121b CDK13; assay type: cell-based; settings: HEK-293T, at 10 µM
Sequence of Cyclin-dependent kinase 13/Cyclin-K (Homo sapiens) (O75909 whole entry, looked up): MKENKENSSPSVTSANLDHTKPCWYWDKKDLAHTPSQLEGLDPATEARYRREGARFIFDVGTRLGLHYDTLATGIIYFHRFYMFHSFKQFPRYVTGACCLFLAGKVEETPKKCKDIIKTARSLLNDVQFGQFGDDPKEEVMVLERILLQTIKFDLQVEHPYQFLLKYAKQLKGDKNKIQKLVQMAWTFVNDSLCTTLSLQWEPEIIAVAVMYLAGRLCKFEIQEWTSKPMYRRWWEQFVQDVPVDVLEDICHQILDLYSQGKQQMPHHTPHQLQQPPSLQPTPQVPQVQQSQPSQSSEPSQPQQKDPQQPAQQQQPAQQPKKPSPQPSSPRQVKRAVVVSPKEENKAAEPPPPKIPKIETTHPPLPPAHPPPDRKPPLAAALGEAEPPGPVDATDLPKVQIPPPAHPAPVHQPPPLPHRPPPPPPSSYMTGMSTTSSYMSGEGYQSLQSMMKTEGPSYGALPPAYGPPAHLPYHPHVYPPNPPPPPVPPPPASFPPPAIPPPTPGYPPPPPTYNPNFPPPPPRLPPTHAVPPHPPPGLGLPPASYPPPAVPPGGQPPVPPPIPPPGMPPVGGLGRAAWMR
Sequence of Cyclin-dependent kinase 13/Cyclin-K (Homo sapiens) (Q14004 whole entry, looked up): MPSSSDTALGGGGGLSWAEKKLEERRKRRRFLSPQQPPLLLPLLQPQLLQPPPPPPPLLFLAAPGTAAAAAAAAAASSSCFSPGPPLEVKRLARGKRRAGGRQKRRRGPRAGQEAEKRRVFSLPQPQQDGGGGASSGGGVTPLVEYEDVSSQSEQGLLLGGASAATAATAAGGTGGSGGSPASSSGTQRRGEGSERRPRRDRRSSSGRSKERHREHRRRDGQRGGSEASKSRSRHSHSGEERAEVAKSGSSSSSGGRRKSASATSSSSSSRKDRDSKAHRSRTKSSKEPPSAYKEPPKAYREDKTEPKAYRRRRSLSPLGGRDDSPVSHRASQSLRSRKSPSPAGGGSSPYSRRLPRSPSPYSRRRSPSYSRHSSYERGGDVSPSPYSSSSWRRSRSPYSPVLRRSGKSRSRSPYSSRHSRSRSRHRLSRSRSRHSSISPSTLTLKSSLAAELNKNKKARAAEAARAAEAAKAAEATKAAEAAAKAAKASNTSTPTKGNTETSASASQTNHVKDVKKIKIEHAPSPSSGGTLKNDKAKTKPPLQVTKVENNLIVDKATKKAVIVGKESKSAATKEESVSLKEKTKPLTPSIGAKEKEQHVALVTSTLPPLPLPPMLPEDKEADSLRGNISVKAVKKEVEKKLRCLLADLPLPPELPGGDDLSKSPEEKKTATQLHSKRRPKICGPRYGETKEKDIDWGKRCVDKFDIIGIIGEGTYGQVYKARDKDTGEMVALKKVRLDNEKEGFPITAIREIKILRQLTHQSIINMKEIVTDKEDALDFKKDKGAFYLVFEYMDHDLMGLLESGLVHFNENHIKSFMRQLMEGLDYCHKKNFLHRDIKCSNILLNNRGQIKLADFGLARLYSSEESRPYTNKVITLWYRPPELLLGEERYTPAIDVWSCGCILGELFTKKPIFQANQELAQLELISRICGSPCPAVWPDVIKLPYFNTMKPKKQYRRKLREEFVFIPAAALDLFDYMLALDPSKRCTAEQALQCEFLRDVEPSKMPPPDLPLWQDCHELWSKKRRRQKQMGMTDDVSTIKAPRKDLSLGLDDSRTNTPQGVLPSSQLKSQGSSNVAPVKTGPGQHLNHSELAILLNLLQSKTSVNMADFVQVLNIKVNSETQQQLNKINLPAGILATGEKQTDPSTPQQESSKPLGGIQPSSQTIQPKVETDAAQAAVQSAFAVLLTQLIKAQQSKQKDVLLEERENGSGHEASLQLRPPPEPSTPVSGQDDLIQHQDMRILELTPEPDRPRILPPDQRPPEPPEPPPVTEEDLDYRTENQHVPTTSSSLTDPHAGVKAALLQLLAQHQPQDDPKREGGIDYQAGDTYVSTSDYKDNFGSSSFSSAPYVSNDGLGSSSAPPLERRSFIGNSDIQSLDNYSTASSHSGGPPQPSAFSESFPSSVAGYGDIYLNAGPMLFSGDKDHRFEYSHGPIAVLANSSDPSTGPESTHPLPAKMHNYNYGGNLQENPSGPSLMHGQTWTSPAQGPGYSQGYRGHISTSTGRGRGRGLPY

[22] = target: CDK11A/Cyclin L2 (Homo sapiens) (UniProt Q9UQ88+Q96S94); assay: Selectivity interaction (NanoBRET assay in HEK293T cells) EUB0000121b CDK11A; assay type: cell-based; settings: HEK-293T, at 10 µM
[23] = target: T1, Glycogen synthase kinase-3 alpha; assay: as §1
[24] = target: Cyclin-dependent kinase 4/cyclin D1 (Homo sapiens) (UniProt P11802+P24385); assay: Selectivity interaction (NanoBRET assay in HEK293T cells) EUB0000121b CDK4; assay type: cell-based; settings: HEK-293T, at 10 µM
[25] = target: Cyclin-dependent kinase 2/cyclin A (Homo sapiens, UniProt P24941); assay: Selectivity interaction (LanthaScreen Eu Kinase Binding Assay (Invitrogen)) EUB0000121b CDK2; assay type: protein-complex assay
[26] = target: Cyclin-C/Cyclin-dependent kinase 19 (Homo sapiens) (UniProt Q9BWU1+P24863); assay: Selectivity interaction (NanoBRET assay in HEK293T cells) EUB0000121b CDK19; assay type: cell-based; settings: HEK-293T, at 10 µM
[27] = target: T2, Tyrosine-protein kinase ABL2; assay: as §2; settings: at 10 µM
[28] = target: CDK17/Cyclin-Y (Homo sapiens) (UniProt Q00537+Q8ND76); assay: Selectivity interaction (NanoBRET assay in HEK293T cells) EUB0000121b CDK17; assay type: cell-based; settings: HEK-293T, at 10 µM
[29] = target: T4, Mitogen-activated protein kinase kinase kinase kinase 4; assay: as §3; settings: at 10 µM
[30] = target: Cyclin-dependent kinase 5/CDK5 activator 1 (Homo sapiens) (UniProt Q00535+Q15078); assay: Selectivity interaction (NanoBRET assay in HEK293T cells) EUB0000121b CDK5; assay type: cell-based; settings: HEK-293T, at 10 µM
[31] = target: CDK10/Cyclin L2 (Homo sapiens) (UniProt Q15131+Q96S94); assay: Selectivity interaction (NanoBRET assay in HEK293T cells) EUB0000121b CDK10; assay type: cell-based; settings: HEK-293T, at 10 µM

% of inhibition [1]: 8.7%
% of control [2]: 9.5%
% of inhibition [3]: 10.2%
% of inhibition [4]: 27.7%
% of inhibition [5]: -2.3%
IC50 [6]: 3.64 µM
% of inhibition [7]: 38.7%
% of inhibition [8]: -1%
IC50 (CDK6/cyclin D3): > 10 µM
% of inhibition [9]: 88.8%
% of inhibition [10]: 31.6%
% of inhibition [11]: 14.8%
% of inhibition [12]: 22.1%
IC50 (CDK7/Cyclin H/MNAT1 [13]): > 10 µM
IC50 [14]: > 20 µM
% of inhibition [15]: -9.3%
% of inhibition [16]: 5.3%
% of inhibition [17]: 18.7%
% of inhibition [18]: 14.5%
IC50 [19]: 820 nM
IC50 (CDK7/Cyclin H/MNAT1 [20]): 16 µM
% of inhibition [21]: 10.2%
% of inhibition [22]: 7.5%
IC50 [23]: 1460 nM
% of inhibition [24]: 44%
IC50 [25]: 1010 nM
% of inhibition [26]: 11.4%
% of control [27]: 27%
% of inhibition [28]: 19%
% of control [29]: 17.5%
% of inhibition [30]: 11.4%
% of inhibition [31]: 6.6%
Structure (SMILES): COc1ccccc1-c1cc(Nc2cccc(CS(N)(=O)=O)c2)ncn1
